For one test, the system named is SARS-CoV-2 strain USA-WA1/2020. Put plainly: microbe, parasite or virus in culture. It counts as cell-based. To be noted: Severe acute respiratory syndrome coronavirus 2, HeLa-ACE2, 24 h, HeLa-ACE2 cells, SARS-CoV-2 infection, 24 h; cells given as a bound; read-out: EC50, uM (Hela).
Consider `CC(C)C[C@H](NC(=O)C1CCCNC1=O)C(=O)N[C@@H](C[C@@H]1CCNC1=O)C(=O)COC(F)(F)F` (stereo partly drawn) [Compound 190, N-((S)-4-methyl-1-oxo-1-(((S)-3-oxo-1-((S)-2-oxopyrrolidin-3-yl)-4-(trifluoromethoxy)butan-2-yl)amino)pentan-2-yl)-2-oxopiperidine-3-carboxamide], for which the EC50 – broadly, the midpoint of the concentration-response curve – was greater than 1 µM. For `CC(C)C[C@H](NC(=O)C(=O)Nc1ccccc1F)C(=O)N[C@@H](CC1CCCCC1)C(=O)COc1c(F)c(F)cc(F)c1F` [Compound 80, N1-((S)-1-(((S)-1-cyclohexyl-3-oxo-4-(2,3,5,6-tetrafluorophenoxy)butan-2-yl)amino)-4-methyl-1-oxopentan-2-yl)-N2-(2-fluorophenyl)oxalamide], the EC50 is greater than 1 µM. Same read-out and setting: the result for `CC(=O)N1CCN(C(=O)C(=O)N[C@@H](CC(C)C)C(=O)N[C@@H](C[C@@H]2CCNC2=O)C(=O)COc2c(F)c(F)cc(F)c2F)CC1` [Compound 104, (S)-2-(2-(4-acetylpiperazin-1-yl)-2-oxoacetamido)-4-methyl-N-((S)-3-oxo-1-((S)-2-oxopyrrolidin-3-yl)-4-(2,3,5,6-tetrafluorophenoxy)butan-2-yl)pentanamide] reads greater than 1 µM.

Staying with this test, now noted: Severe acute respiratory syndrome coronavirus 2, HeLa-ACE2, 24 h, HeLa-ACE2 cells, SARS-CoV-2 infection, 24 h; class symbols; read-out: EC50, uM (Hela).
With `CC1(C)[C@@H]2[C@@H](C(=O)N[C@@H](C[C@@H]3CCNC3=O)C(=O)COC(F)(F)F)N(C(=O)[C@H]3CCCO3)C[C@@H]21` [Compound 291, (1R,2S,5S)-6,6-dimethyl-N-((S)-3-oxo-1-((S)-2-oxopyrrolidin-3-yl)-4-(trifluoromethoxy)butan-2-yl)-3-((R)-tetrahydrofuran-2-carbonyl)-3-azabicyclo-[3.1.0]hexane-2-carboxamide], the EC50 lay within 0.05 to 0.2 µM. As for `CC1(C)[C@@H]2[C@@H](C(=O)N[C@@H](C[C@@H]3CCNC3=O)C(=O)COC(F)(F)F)N(C(=O)c3cc(C(F)(F)F)on3)C[C@@H]21` [Compound 283, (1R,2S,5S)-6,6-dimethyl-N-((S)-3-oxo-1-((S)-2-oxopyrrolidin-3-yl)-4-(trifluoromethoxy)butan-2-yl)-3-(5-(trifluoromethyl)-isoxazole-3-carbonyl)-3-azabicyclo[3.1.0]-hexane-2-carboxamide], the EC50 was less than 0.05 µM. Turning to `CC[C@@H](OC)C(=O)N1C[C@H]2[C@@H]([C@H]1C(=O)N[C@@H](C[C@@H]1CCNC1=O)C(=O)COC(F)(F)F)C2(C)C` [Compound 336, (1R,2S,5S)-3-((R)-2-methoxybutanoyl)-6,6-dimethyl-N—((S)-3-oxo-1-((S)-2-oxopyrrolidin-3-yl)-4-(trifluoromethoxy)butan-2-yl)-3-azabicyclo[3.1.0]hexane-2-carboxamide], the EC50 was 0.05 to 0.2 µM. Take `CC(C)C[C@H](NC(=O)c1cc2ncccc2[nH]1)C(=O)N[C@@H](C[C@@H]1CCNC1=O)C(=O)COC(F)(F)F` [Compound 248, N-((S)-4-methyl-1-oxo-1-(((S)-3-oxo-1-((S)-2-oxopyrrolidin-3-yl)-4-(trifluoromethoxy)butan-2-yl)amino)pentan-2-yl)-1H-pyrrolo[3,2-b]pyridine-2-carboxamide]: the EC50 is 0.2 to 0.5 µM.

As for `CC(C)C[C@H](NC(=O)C(=O)NC1(C)CCNC1)C(=O)N[C@@H](C[C@@H]1CCNC1=O)C(=O)COC(F)(F)F` (stereo partly drawn) [Compound 252, N1-((S)-4-methyl-1-oxo-1-(((S)-3-oxo-1-((S)-2-oxopyrrolidin-3-yl)-4-(trifluoromethoxy)butan-2-yl)amino)pentan-2-yl)-N2-(3-methylpyrrolidin-3-yl)oxalamide], the EC50 fell in the range of 0.2 to 0.5 µM. In the case of `CC(C)(O)C(=O)N1CC2(CC2)C[C@H]1C(=O)N[C@@H](C[C@@H]1CCNC1=O)C(=O)COC(F)(F)F` [Compound 354, (S)-5-(2-hydroxy-2-methylpropanoyl)-N-((S)-3-oxo-1-((S)-2-oxopyrrolidin-3-yl)-4-(trifluoromethoxy)butan-2-yl)-5-azaspiro[2.4]-heptane-6-carboxamide], the EC50 lay within 0.05 to 0.2 µM. For the compound `CC1(NC(=O)C(=O)N[C@@H](Cc2cccc(F)c2)C(=O)N[C@@H](C[C@@H]2CCNC2=O)C(=O)COC(F)(F)F)CC1` [Compound 215, N1-((S)-3-(3-fluorophenyl)-1-oxo-1-(((S)-3-oxo-1-((S)-2-oxopyrrolidin-3-yl)-4-(trifluoromethoxy)butan-2-yl)amino)propan-2-yl)-N2-(1-methylcyclopropyl)-oxalamide], the EC50 is less than 0.05 µM. `CC1(C)[C@@H]2[C@@H](C(=O)N[C@@H](C[C@@H]3CCNC3=O)C(=O)COC(F)(F)F)N(C(=O)C(O)CC(F)(F)F)C[C@@H]21` (stereo partly drawn) [Compound 391, (1R,2S,5S)-6,6-dimethyl-N-((S)-3-oxo-1-((S)-2-oxopyrrolidin-3-yl)-4-(trifluoromethoxy)butan-2-yl)-3-(4,4,4-trifluoro-2-hydroxybutanoyl)-3-azabicyclo[3.1.0]-hexane-2-carboxamide]: the EC50 lay in the range of 0.05 to 0.2 µM.

For `COc1cccc2c1OC(C(=O)N[C@@H](CC(C)C)C(=O)N[C@@H](C[C@@H]1CCNC1=O)C(=O)COC(F)(F)F)C2` (stereo partly drawn) [Compound 255, 7-methoxy-N-((S)-4-methyl-1-oxo-1-(((S)-3-oxo-1-((S)-2-oxopyrrolidin-3-yl)-4-(trifluoromethoxy)butan-2-yl)amino)pentan-2-yl)-2,3-dihydrobenzofuran-2-carboxamide], the EC50 was less than 0.05 µM. For the compound `CC(C)C[C@H](NC(=O)[C@H](O)CF)C(=O)N[C@@H](C[C@@H]1CCNC1=O)C(=O)COC(F)(F)F` [Compound 396, (S)-2-((S)-3-fluoro-2-hydroxypropanamido)-4-methyl-N-((S)-3-oxo-1-((S)-2-oxopyrrolidin-3-yl)-4-(trifluoromethoxy)butan-2-yl)pentanamide], the EC50 fell in the range of 0.2 to 0.5 µM.

Take `CC(C)C[C@H](NC(=O)C(=O)NC1CC2(C1)CC(F)(F)C2)C(=O)N[C@@H](C[C@@H]1CCNC1=O)C(=O)COC(F)(F)F` [Compound 241, N1-(6,6-difluorospiro-[3.3]heptan-2-yl)-N2-((S)-4-methyl-1-oxo-1-(((S)-3-oxo-1-((S)-2-oxopyrrolidin-3-yl)-4-(trifluoromethoxy)butan-2-yl)amino)pentan-2-yl)oxalamide]: the EC50 is less than 0.05 µM.

The test is the same for the next values; noted with them: Severe acute respiratory syndrome coronavirus 2, HeLa-ACE2, 24 h, HeLa-ACE2 cells, SARS-CoV-2 infection, 24 h; read-out: EC50, uM (Hela).
As for `CC(C)C[C@H](O)C(=O)N[C@@H](C[C@@H]1CCNC1=O)C(=O)COC(F)(F)F` [Compound 719, (S)-2-hydroxy-4-methyl-N-((S)-3-oxo-1-((S)-2-oxopyrrolidin-3-yl)-4-(trifluoromethoxy)butan-2-yl)pentanamide], the EC50 lay within 0.5 to 1 µM. Same read-out and setting: the result for `CC(C)C[C@@H](O)C(=O)N[C@@H](Cc1cccc(F)c1)C(=O)N[C@@H](C[C@@H]1CCNC1=O)C(=O)COC(F)(F)F` [Compound 671, (R)-N-((S)-3-(3-fluorophenyl)-1-oxo-1-(((S)-3-oxo-1-((S)-2-oxopyrrolidin-3-yl)-4-(trifluoromethoxy)butan-2-yl)amino)propan-2-yl)-2-hydroxy-4-methylpentanamide] reads less than 0.05 µM; that for `O=C1NCC[C@H]1C[C@H](NC(=O)[C@@H]1CC2(CC2)CN1C(=O)CCNS(=O)(=O)Nc1ccccc1)C(=O)COC(F)(F)F` [Compound 670, (S)-N-((S)-3-oxo-1-((S)-2-oxopyrrolidin-3-yl)-4-(trifluoromethoxy)butan-2-yl)-5-(3-((N-phenylsulfamoyl)amino)propanoyl)-5-azaspiro[2.4]heptane-6-carboxamide], 0.2 to 0.5 µM; that for `O=C(C(=O)N1CC2(CC2)C[C@H]1C(=O)N[C@@H](C[C@@H]1CCNC1=O)C(=O)COC(F)(F)F)c1ccccc1` [Compound 674, (S)-N-((S)-3-oxo-1-((S)-2-oxopyrrolidin-3-yl)-4-(trifluoromethoxy)butan-2-yl)-5-(2-oxo-2-phenylacetyl)-5-azaspiro[2.4]heptane-6-carboxamide], 0.05 to 0.2 µM. Consider `CC(C)CC(C(=O)N[C@@H](C[C@@H]1CCNC1=O)C(=O)COC(F)(F)F)n1cc(C(=O)NC(C)(C)C)nn1` (stereo partly drawn) [Compound 592, N-(tert-butyl)-1-(4-methyl-1-oxo-1-(((S)-3-oxo-1-((S)-2-oxopyrrolidin-3-yl)-4-(trifluoromethoxy)butan-2-yl)amino)pentan-2-yl)-1H-1,2,3-triazole-4-carboxamide], for which the EC50 was 0.05 to 0.2 µM. On to `O=C1NCC[C@H]1C[C@H](NC(=O)[C@@H]1CC2(CC2)CN1C(=O)C1CCC(F)(F)CC1)C(=O)COC(F)(F)F` [Compound 661, (S)-5-(4,4-difluorocyclohexane-1-carbonyl)-N-((S)-3-oxo-1-((S)-2-oxopyrrolidin-3-yl)-4-(trifluoromethoxy)butan-2-yl)-5-azaspiro[2.4]heptane-6-carboxamide], for which the EC50 was in the range of 0.05 to 0.2 µM. In the case of `O=C1NCC[C@H]1C[C@H](NC(=O)[C@@H]1CC2(CC2)CN1C(=O)[C@H](O)CC(F)F)C(=O)COC(F)(F)F` [Compound 450, (S)-5-((R)-4,4-difluoro-2-hydroxybutanoyl)-N-((S)-3-oxo-1-((S)-2-oxopyrrolidin-3-yl)-4-(trifluoromethoxy)butan-2-yl)-5-azaspiro[2.4]heptane-6-carboxamide], the EC50 lay in the range of 0.05 to 0.2 µM.

Turning to `CC(C)(F)c1cc(C(=O)N[C@@H](CC2CC2)C(=O)N[C@@H](C[C@@H]2CCNC2=O)C(=O)COC(F)(F)F)no1` [Compound 490, N-((S)-3-cyclopropyl-1-oxo-1-(((S)-3-oxo-1-((S)-2-oxopyrrolidin-3-yl)-4-(trifluoromethoxy)butan-2-yl)amino)propan-2-yl)-5-(2-fluoropropan-2-yl)isoxazole-3-carboxamide], the half-maximal effective concentration (EC50) is less than 0.05 µM.

The test is the same for the next values; noted with them: Severe acute respiratory syndrome coronavirus 2, HeLa-ACE2, 24 h; read-out: EC50, uM (Hela).
`CC(C)C[C@H](NC(=O)C12CC(NC(=O)C(F)(F)F)(CO1)C2)C(=O)N[C@@H](C[C@@H]1CCNC1=O)C(=O)COC(F)(F)F` [Compound 314, N-((S)-4-methyl-1-oxo-1-(((S)-3-oxo-1-((S)-2-oxopyrrolidin-3-yl)-4-(trifluoromethoxy)butan-2-yl)amino)pentan-2-yl)-4-(2,2,2-trifluoroacetamido)-2-oxabicyclo[2.1.1]-hexane-1-carboxamide]: the 50% effective concentration (EC50) lay in the range of 0.2 to 0.5 µM.

Source of the values: patent US11708348B2, “Protease inhibitors for treatment of coronavirus infections” (The Scripps Research Institute, priority 2021, dated 2023).
